Measurements published in US10300052B2, “Methods for increasing CFTR activity” (THE UAB RESEARCH FOUNDATION, priority 2012, dated 2019).

What was measured:
[1] = system: porcine trachea CFTR−/−; test: μOCT imaging of airway epithelial function in porcine trachea, CFTR-/- animals; conditions: sequential ivacaftor 10 μM, forskolin 100 nM, acetylcholine 100 μM in bath, 37° C. (FIG. 7G)
Source text: FIGS. 7A-7H show the effects of CFTR activators on airway epithelial function in intact porcine trachea by μOCT. FIGS. 7A-7B show representative μOCT images for a CFTR−/− (FIG. 7A) and CFTR+/+ (FIG. 7B) animal. FIGS. 7C-7F, respectively, show ASL depth (FIG. 7C), PCL depth (FIG. 7D), CBF (FIG. 7E) and MCT (FIG. 7F) measurements derived from μOCT images from CFTR−/− and CFTR+/+ animals. FIGS. 7G and 7H show the response of epithelial functional parameters, namely ASL depth and MCT in CFTR−/− (FIG. 7G) and CFTR+/+(FIG. 7H) animals in response to sequential pharmacologic intervention by ivacaftor (10 μM), forskolin (100 nM) and acetylcholine (100 μM).
To further investigate the role of CFTR activators in modulating airway epithelial cell function, CFTR activators were studied in combination with porcine trachea. In this example, porcine trachea from animals having a mutated CFTR (CFTR (−/−) and from animals having a WT-CFTR (CFTR+/+) were evaluated for ASL depth, PCL depth, CBF and MCT. The results are shown in FIGS. 7A-7H.
FIGS. 7G and 7H show the response of epithelial functional parameters, namely ASL depth, CBF and MCT in CFTR−/− and CFTR+/+ animals in response to sequential pharmacologic intervention by ivacaftor (10 μM), forskolin (100 nM) and acetylcholine (100 μM); in this experiment, acetylcholine served as a positive control to induce glandular extrusion in CF tissue). In these experiments, agonists were added to the bath solution and all experiments were conducted under physiological conditions (37° C. and 100% humidity). […] In contrast to FIG. 7G, ASL depth, CBF and MCT were all increased in response to ivacaftor treatment in CFTR+/+ animals, consistent with the results described above for human tissue.
Normal piglet tracheas were obtained from Exemplar Genetics (Sioux Center, Iowa). Tissue were dissected from one-day-old piglets and shipped on wet ice in DMEM. A modified protocol based on airway tissue handling and preparation methods developed by Ballard et al. (Am J Physiol Lung Cell Mol Physiol 298: L270-276, 2010) was employed. Tracheas were immersed in 80 mL Ringer bicarbonate solution (KRB) baths at room temperature and slowly warmed to 37° C. After four hours of pretreatment, the tracheas were removed from the KRB. Accessible mucus and liquid were aspirated from the airway lumens and the tracheal ends were cannulated so that the serosal surface was bathed in KRB [29] without contacting the mucosal surface, as previously described (Ballard et al., Am J Physiol Lung Cell Mol Physiol 298: L270-276, 2010; Martens, et al., Am J Physiol Lung Cell Mol Physiol 301: L236-246, 2011). Tracheas were allowed to equilibrate in KRB bubbled with 95% 02 and 5% CO2 at 37° C. and the luminal side exposed to conditioned air at 100% humidity for 2 hours prior to mOCT imaging (Sleigh et al., Comp Biochem Physiol A Comp Physiol 94: 359-364, 1989).
The μOCT system is a spectral-domain OCT implementation with several improvements to standard OCT that yield high resolution in both lateral and axial directions. The general layout and axial resolution characterization have been described (Liu et al., PLOSOne, 8(1), E54473-2013). A super-continuum source (Fianium SC450) provides the high-bandwidth, short coherence length light necessary for high axial resolution ([…]). A typical OCT system includes an interferometer with the reference and sample arms intersecting at a beamsplitter. The beamsplitter is replaced in μOCT with a 45 degree rod mirror, which apodizes the sample beam by introducing a circular obscuration in the center to achieve a balance of good lateral resolution (2 μm) and long depth of focus (0.2 mm). Custom software is employed to control the galvanometer scanning motors while acquiring spectral data from the line camera. […]

[2] = system: human bronchial tissue; test: μOCT imaging of airway epithelial function in human bronchial tissue
Procedure: FIGS. 6A-6C show the effects of CFTR activators on airway epithelial function in human bronchial tissue by μOCT. FIGS. 6A-6C show ASL depth (FIG. 6A), CBF (FIG. 6B) and MCT (FIG. 6C), respectively in response to ivacaftor treatment (10 μM).
To further investigate the role of CFTR activators in modulating airway epithelial cell function, CFTR activators were studied in combination with human bronchial tissue from a failed healthy donor. Human bronchial tissue was obtained and maintained as described herein. Control experiments were performed with the human bronchial tissue being exposed to DMSO control only (0.2%) and compared to ivacaftor treatment. FIGS. 6A-6C show ASL depth, CBF and MCT, respectively.
Samples of human trachea tissue were obtained from normal donor explant organs not selected for lung transplantation. Lung, mainstem bronchi, and trachea were resected en-bloc, transferred on wet ice, and large airways excised. Airway tissues were then immersed in ice cold DMEM following resection for transfer, then allowed to equilibrate to room temperature prior to mOCT imaging.
The μOCT system is a spectral-domain OCT implementation with several improvements to standard OCT that yield high resolution in both lateral and axial directions. The general layout and axial resolution characterization have been described (Liu et al., PLOSOne, 8(1), E54473-2013). A super-continuum source (Fianium SC450) provides the high-bandwidth, short coherence length light necessary for high axial resolution ([…]). […]
μOCT imaging was performed on various cells cultures with illumination incident on the apical side of the cells. […] ASL and PCL were measured directly from the thicknesses of the visible layers in the image with a correction applied for the index of refraction in the liquid (n=1.33). ASL and PCL were evaluated at 5 equally distributed regions of the image. CBF and MCT were determined from a time series of images. […] Up to 10 regions of ciliary activity per image sequence were assessed for CBF. […]

With CC(C)(C)c1cc(C(C)(C)C)c(NC(=O)c2c[nH]c3ccccc3c2=O)cc1O [ivacaftor] the ASL depth response [1] was “no response”, the CBF response [1] was “no response” and the MCT response [1] was “no response”. The CBF frequency ([2]; ivacaftor 10 μM vs DMSO control (FIG. 6B)) was “significantly increased”, the ASL depth ([2]; ivacaftor 10 μM, DMSO control approximately 10 microns (FIG. 6A)) was “approximately 30 microns” and the MCT ([2]; ivacaftor 10 μM, control less than 0.01 mm/min (FIG. 6C)) was ~0.04 mm/min.
